pKd: −log10 of the molar value. Where two headings read alike, the source gives them in different places. Numbered stars: 1 amine (or outer) side, 2 acyl side, 3 side chain; on linkers, the order of the positions; unused ones are H or OH. Bridge positions count the residues as written; N and C are the ends. Square brackets hold non-standard residues; d marks the D form. Peptide text beside a SMILES is read from it. I, II: the chains in the order shown. * marks the point of attachment. X1 = O=C(CCN1C(=O)CC([*:1])C1=O)NCCOCCOCCOCCOCCOCCOCCOCCOCCOCCOCCOCCNC(=O)CCN1C(=O)CC([*:2])C1=O; X2 = O=C(CCN1C(=O)CC([*:1])C1=O)NCCCOCCOCCOCCCNC(=O)CCN1C(=O)CC([*:2])C1=O; ClAc = O=C(CCl)*

For seven molecules, koff, kon and Kd results are on record in patent EP4722228A1, “NEW COMPOUND TARGETING MUSK AND USE THEREOF” (The University of Tokyo, priority 2023, dated 2024).

The target of this assay is T1, human MuSK (Homo sapiens, UniProt O15146).
T1 construct: DNA corresponding to the extracellular portion (amino acids 1-493) was amplified by a PCR method; made in house; host or cells: Expi293F cells
T1 sequence (O15146 24-493): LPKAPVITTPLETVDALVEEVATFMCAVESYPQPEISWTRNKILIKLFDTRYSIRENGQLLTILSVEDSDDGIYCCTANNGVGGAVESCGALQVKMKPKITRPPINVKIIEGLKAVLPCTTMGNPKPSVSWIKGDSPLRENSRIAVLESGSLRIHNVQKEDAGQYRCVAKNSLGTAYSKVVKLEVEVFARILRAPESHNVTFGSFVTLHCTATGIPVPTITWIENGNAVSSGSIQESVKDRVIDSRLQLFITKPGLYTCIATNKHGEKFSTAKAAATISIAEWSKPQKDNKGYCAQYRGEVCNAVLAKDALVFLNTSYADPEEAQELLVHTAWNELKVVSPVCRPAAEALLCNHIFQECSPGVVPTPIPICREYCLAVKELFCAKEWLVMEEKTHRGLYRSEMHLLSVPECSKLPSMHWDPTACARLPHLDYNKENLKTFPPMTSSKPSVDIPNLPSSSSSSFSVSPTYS
Briefly: SPR binding activity test to human MuSK (Biacore). How it is done:
The human MuSK protein (extracellular portion) was prepared as a recombinant protein as follows. Using a Flexi clone (FXC31275, Promega Corporation) encoding Human MuSK isoform 1 precursor (NCBI Reference Sequence: NP_005583.1) as a template, DNA corresponding to the extracellular portion (amino acids 1-493) was amplified by a PCR method. XhoI and EcoRI restriction enzyme recognition sequences were added to both the 5' and 3' ends of the amplified DNA sequence, and these were used for insertion into the multiple cloning site of a pCAG-Neo hIgG1-Fc plasmid (Fujifilm Wako Pure Chemical Corporation). This plasmid (pCAG-Neo hMuSK-Fc) enables expression of a chimeric protein of the secretory human MuSK extracellular portion and human IgG1 Fc (hMuSK-Fc; molecular weight of approximately 200 kDa) in animal cells. In practice, ExpiFectamine 293 reagent (Invitrogen) was used to transfect the pCAG-Neo hMuSK-Fc plasmid into Expi293F cells (Invitrogen), and shaking culture was carried out (for 6 days) in an incubator containing 8% CO2. Next, the culture supernatant was collected, centrifuged, and sterilized by filtration through a 0.22 µm filter. The obtained culture supernatant was subjected to Protein G purification, and finally, a purified hMuSK-Fc sample with 99.96% purity (AKTA-FPLC analysis) was obtained.
The strength of binding between MuSK and the cyclic peptides was evaluated by quantitatively measuring the binding kinetics (binding affinity (dissociation constant) KD) of the cyclic peptides to MuSK immobilized on a sensor chip via an Fc tag, using surface plasmon resonance (SPR).
According to the standard immobilization protocol provided by the manufacturer, Fc-tagged human/mouse/rat MuSK was immobilized on a Protein G chip or a Protein A chip (Cytiva). A running buffer for the monomer/dimer peptides contained 0.010 M phosphate, 0.14 M NaCl, 0.0027 M KCl, 0.05% (v/v) Tween 20, and 0.1% (v/v) DMSO. A running buffer for the monomer/dimer U-bodies contained 0.010 M phosphate, 0.14 M NaCl, 0.0027 M KCl, and 0.05% (v/v) Tween 20. A series of concentrations of each monomer peptide, dimer peptide, monomer U-body, and dimer U-body was injected as analytes. A 1:1 binding fitting analysis was applied using Biacore evaluation software, and ka, kd, and KD values were determined.
Fc-tagged human MuSK was prepared according to the procedure described in Example 1(1). In addition, Fc-tagged mouse MuSK was used by expressing a nucleotide sequence encoding the Fc-tagged mouse MuSK extracellular domain (SEQ ID NO: 34). In addition, Fc-tagged rat MuSK was used as a chimeric protein of rat MuSK and an Fc protein, namely, Recombinant Rat MuSK Fc Chimera Protein (catalog number: 9847-MK-050, R&D Systems).
The affinity of the U-bodies and their complexes obtained as described above for MuSK of human, rat, and mouse was evaluated (binding activity test). The test was carried out according to the procedure described in Example 1(3). However, for the complexes of U-bodies, surface plasmon resonance (SPR) analysis was carried out using a Biacore 8K (Cytiva).
On the technique in general: In SPR one partner is held on a chip, and binding of the other changes the refractive index at the surface.

Where [1] appears, read: human MuSK, peptide homodimers, read-out: Kd.

With `CC[C@H](C)[C@@H]1NC(=O)[C@H](CC(N)=O)NC(=O)[C@H](C(C)C)NC(=O)[C@H](Cc2ccc(O)cc2)NC(=O)CNC(=O)[C@@H]2CCCN2C(=O)[C@H](CCC(N)=O)NC(=O)[C@H](CC(C)C)NC(=O)[C@H](Cc2ccc(O)cc2)NC(=O)[C@H](Cc2c[nH]c3ccccc23)NC(=O)[C@@H](Cc2ccc(O)cc2)NC(=O)CSC[C@@H](C(=O)N[C@@H](CSC2CC(=O)N(CCC(=O)NCCOCCOCCOCCOCCOCCOCCOCCOCCOCCOCCOCCNC(=O)CCN3C(=O)CC(SC[C@H](NC(=O)[C@@H]4CSCC(=O)N[C@H](Cc5ccc(O)cc5)C(=O)N[C@@H](Cc5c[nH]c6ccccc56)C(=O)N[C@@H](Cc5ccc(O)cc5)C(=O)N[C@@H](CC(C)C)C(=O)N[C@@H](CCC(N)=O)C(=O)N5CCC[C@H]5C(=O)NCC(=O)N[C@@H](Cc5ccc(O)cc5)C(=O)N[C@@H](C(C)C)C(=O)N[C@@H](CC(N)=O)C(=O)N[C@@H]([C@@H](C)CC)C(=O)N[C@@H](C(C)C)C(=O)N[C@@H]([C@@H](C)O)C(=O)N[C@@H](CO)C(=O)N[C@@H](Cc5ccc(O)cc5)C(=O)N[C@@H](Cc5c[nH]cn5)C(=O)N4)C(N)=O)C3=O)C2=O)C(N)=O)NC(=O)[C@H](Cc2c[nH]cn2)NC(=O)[C@H](Cc2ccc(O)cc2)NC(=O)[C@H](CO)NC(=O)[C@H]([C@@H](C)O)NC(=O)[C@H](C(C)C)NC1=O` (stereo partly drawn) [MuSK9 PEG11 dimer] (I: {CH2CO}-[dY]WYLQPGYVNIVTSYHCC-NH2 / II: {CH2CO}-[dY]WYLQPGYVNIVTSYHCC-NH2; linker I:18-II:18 via X1; thioether I:N-I:17, II:N-II:17), under “human MuSK, peptide homodimers”, the koff (usually the first-order rate constant of dissociation) amounted to 0.0017 s⁻¹ and the kon (usually the rate constant with which the complex forms) stood at 440000 M⁻¹ s⁻¹. In addition, the pKd (usually the negative decadic logarithm of the Kd, by convention in mol/L) under setting [1] is 8.41.

`CC(C)C[C@@H]1NC(=O)[C@H](CC(C)C)NC(=O)[C@H](CO)NC(=O)[C@H](C(C)C)NC(=O)[C@H](C(C)C)NC(=O)[C@H](CC(N)=O)NC(=O)[C@H]([C@@H](C)O)NC(=O)[C@@H]2CCCN2C(=O)[C@H](Cc2ccccc2)NC(=O)[C@@H](Cc2ccc(O)cc2)NC(=O)CSC[C@@H](C(=O)N[C@@H](CSC2CC(=O)N(CCC(=O)NCCOCCOCCOCCOCCOCCOCCOCCOCCOCCOCCOCCNC(=O)CCN3C(=O)CC(SC[C@H](NC(=O)[C@@H]4CSCC(=O)N[C@H](Cc5ccc(O)cc5)C(=O)N[C@@H](Cc5ccccc5)C(=O)N5CCC[C@H]5C(=O)N[C@@H]([C@@H](C)O)C(=O)N[C@@H](CC(N)=O)C(=O)N[C@@H](C(C)C)C(=O)N[C@@H](C(C)C)C(=O)N[C@@H](CO)C(=O)N[C@@H](CC(C)C)C(=O)N[C@@H](CC(C)C)C(=O)N[C@@H](CCCCN)C(=O)N[C@@H](CO)C(=O)N4)C(N)=O)C3=O)C2=O)C(N)=O)NC(=O)[C@H](CO)NC(=O)[C@H](CCCCN)NC1=O` (stereo partly drawn) [MuSK4 PEG11 dimer] (I: {CH2CO}-[dY]FPTNVVSLLKSCC-NH2 / II: {CH2CO}-[dY]FPTNVVSLLKSCC-NH2; linker I:14-II:14 via X1; thioether I:N-I:13, II:N-II:13): where the note is “human MuSK, peptide homodimers”, the koff turned out to be 0.0056 s⁻¹ and the on-rate constant (kon) is 810000 M⁻¹ s⁻¹. Moreover, under setting [1], the pKd is 8.16.

As to `CC[C@H](C)[C@@H]1NC(=O)[C@H](CC(N)=O)NC(=O)[C@H](C(C)C)NC(=O)[C@H](Cc2ccc(O)cc2)NC(=O)CNC(=O)[C@@H]2CCCN2C(=O)[C@H](CCC(N)=O)NC(=O)[C@H](CC(C)C)NC(=O)[C@H](Cc2ccc(O)cc2)NC(=O)[C@H](Cc2c[nH]c3ccccc23)NC(=O)[C@@H](Cc2ccc(O)cc2)NC(=O)CSC[C@@H](C(=O)N[C@@H](CSC2CC(=O)N(CCC(=O)NCCCOCCOCCOCCCNC(=O)CCN3C(=O)CC(SC[C@H](NC(=O)[C@@H]4CSCC(=O)N[C@H](Cc5ccc(O)cc5)C(=O)N[C@@H](Cc5c[nH]c6ccccc56)C(=O)N[C@@H](Cc5ccc(O)cc5)C(=O)N[C@@H](CC(C)C)C(=O)N[C@@H](CCC(N)=O)C(=O)N5CCC[C@H]5C(=O)NCC(=O)N[C@@H](Cc5ccc(O)cc5)C(=O)N[C@@H](C(C)C)C(=O)N[C@@H](CC(N)=O)C(=O)N[C@@H]([C@@H](C)CC)C(=O)N[C@@H](C(C)C)C(=O)N[C@@H]([C@@H](C)O)C(=O)N[C@@H](CO)C(=O)N[C@@H](Cc5ccc(O)cc5)C(=O)N[C@@H](Cc5c[nH]cn5)C(=O)N4)C(N)=O)C3=O)C2=O)C(N)=O)NC(=O)[C@H](Cc2c[nH]cn2)NC(=O)[C@H](Cc2ccc(O)cc2)NC(=O)[C@H](CO)NC(=O)[C@H]([C@@H](C)O)NC(=O)[C@H](C(C)C)NC1=O` (stereo partly drawn) [MuSK9 PEG3 dimer] (I: {CH2CO}-[dY]WYLQPGYVNIVTSYHCC-NH2 / II: {CH2CO}-[dY]WYLQPGYVNIVTSYHCC-NH2; linker I:18-II:18 via X2; thioether I:N-I:17, II:N-II:17), for the setting “human MuSK, peptide homodimers”, the koff came out at 0.0017 s⁻¹ and the kon was found to be 780000 M⁻¹ s⁻¹.

On to `CC(C)C[C@@H]1NC(=O)[C@H](CO)NC(=O)[C@H](C)NC(=O)[C@H](C(C)C)NC(=O)[C@H](C(C)C)NC(=O)[C@H](CC(N)=O)NC(=O)[C@H]([C@@H](C)O)NC(=O)[C@H](Cc2c[nH]cn2)NC(=O)[C@H](Cc2ccc(O)cc2)NC(=O)[C@H](CO)NC(=O)[C@@H]2CCCN2C(=O)[C@@H](Cc2ccc(O)cc2)NC(=O)CSC[C@@H](C(=O)N[C@@H](CSC2CC(=O)N(CCC(=O)NCCCOCCOCCOCCCNC(=O)CCN3C(=O)CC(SC[C@H](NC(=O)[C@@H]4CSCC(=O)N[C@H](Cc5ccc(O)cc5)C(=O)N5CCC[C@H]5C(=O)N[C@@H](CO)C(=O)N[C@@H](Cc5ccc(O)cc5)C(=O)N[C@@H](Cc5c[nH]cn5)C(=O)N[C@@H]([C@@H](C)O)C(=O)N[C@@H](CC(N)=O)C(=O)N[C@@H](C(C)C)C(=O)N[C@@H](C(C)C)C(=O)N[C@@H](C)C(=O)N[C@@H](CO)C(=O)N[C@@H](CC(C)C)C(=O)N[C@@H](CCCCN)C(=O)N[C@@H](CCCNC(=N)N)C(=O)N4)C(N)=O)C3=O)C2=O)C(N)=O)NC(=O)[C@H](CCCNC(=N)N)NC(=O)[C@H](CCCCN)NC1=O` (stereo partly drawn) [MuSK7 PEG3 dimer] (I: {CH2CO}-[dY]PSYHTNVVASLKRCC-NH2 / II: {CH2CO}-[dY]PSYHTNVVASLKRCC-NH2; linker I:16-II:16 via X2; thioether I:N-I:15, II:N-II:15), for which, under “human MuSK, peptide homodimers”, the koff was 0.00034 s⁻¹ and the association rate constant (kon) was 540000 M⁻¹ s⁻¹.

For the molecule `CC(C)C[C@H](NC(=O)[C@H](CCC(N)=O)NC(=O)[C@H](CCCNC(=N)N)NC(=O)[C@H](CCC(N)=O)NC(=O)[C@H](CCCNC(=N)N)NC(=O)[C@H](CCC(N)=O)NC(=O)[C@H](CCCNC(=N)N)NC(=O)[C@H](CC(C)C)NC(=O)[C@H](Cc1ccccc1)NC(=O)[C@H](CC(C)C)NC(=O)[C@@H](NC(=O)[C@H](Cc1ccccc1)NC(=O)[C@H](CO)NC(=O)[C@H](CCC(=O)O)NC(=O)[C@@H]1CCCN1C(=O)[C@H](Cc1c[nH]c2ccccc12)NC(=O)[C@H](CO)NC(=O)[C@H](Cc1ccccc1)NC(=O)[C@H](CCC(=O)O)NC(=O)[C@@H]1CCCN1C(=O)[C@H](CC(C)C)NC(=O)[C@@H](Cc1ccc(O)cc1)NC(=O)CCl)C(C)C)C(=O)NCC(=O)N[C@@H](CCCNC(=N)N)C(=O)NCC(=O)N[C@@H](C)C(=O)N[C@@H](CCC(=O)O)C(N)=O` [MuSK1] (ClAc-[dY]LPEFSWPESFVLFLRQRQRQLGRGAE-NH2), the negative logarithm of the Kd (pKd) (25°C, Fc-tagged human MuSK immobilized, monomer peptides, read-out: Binding activity (KD)) was 8.66.

For the setting “human MuSK, peptide homodimers”, “I: Ac-C[dY]LPEFSWPESFVLFLRQRQRQLGRGAE-NH2 / II: Ac-C[dY]LPEFSWPESFVLFLRQRQRQLGRGAE-NH2 (linker I:1-II:1 via X1) [MuSK1Ac PEG11 dimer]” had a dissociation rate constant (koff) of 0.001 s⁻¹ and an on-rate (kon) of 660000 M⁻¹ s⁻¹.

Where the note is “human MuSK, peptide homodimers”, “I: Ac-C[dY]LPEFSWPESFVLFLRQRQRQLGRGAE-NH2 / II: Ac-C[dY]LPEFSWPESFVLFLRQRQRQLGRGAE-NH2 (linker I:1-II:1 via X2) [MuSK1Ac PEG3 dimer]” came in with a koff of 0.0013 s⁻¹ and a kon of 300000 M⁻¹ s⁻¹.
